Data set [1] deals with TYK2 signaling pathway (IFN-α/pSTAT5). Briefly: IFN-α-induced STAT phosphorylation in human whole blood. Format: cell-based. The procedure:
The purpose of this experiment was to detect the inhibitory effect of the compound on the JAK-STAT signaling pathway activated by cytokines in human whole blood or platelet-rich plasma. Fresh human whole blood/platelets were placed in a 96-well plate. The test compound was added and incubated for 1 hour, followed by stimulation with various cytokines. The corresponding STAT phosphorylation levels in different cell populations were analyzed using flow cytometer by means of surface antibody staining and intracellular phosphorylated antibody staining. The experiments using the cytokines IFN-α, […] as stimulants were conducted in human whole blood, whereas the experiment using the cytokine TPO as a stimulant was conducted in platelet-rich plasma.
• a) Fresh blood from volunteers was collected using EDTA anticoagulant tubes. • b) 90 μL per well of whole blood was rapidly seeded into a 96-well plate and incubated in a cell culture incubator for 15 minutes. […] The plate was centrifuged at 500×g for 8 minutes, and the supernatant was discarded. • g) The cell pellet was washed once with pre-cooled PBS. • h) After discarding the supernatant, anti-human CD3 antibody was added thereto, followed by incubation at room temperature for 40 minutes. • i) The plate was centrifuged at 500×g for 8 minutes, then the supernatant was discarded, and the cells were washed twice with 200 μL of pre-cooled PBS. • j) The cells were resuspended in 200 μL of pre-cooled Perm Buffer III per well and permeabilized on ice for 60 minutes. • k) The plate was centrifuged at 600×g for 8 minutes, then the supernatant was discarded, and the cells were washed twice with pre-cooled PBS. • l) Intracellular staining with anti-pSTAT5 antibody was carried out, followed by incubation at room temperature for 60 minutes. • m) The cells were centrifuged at 600×g for 8 minutes, washed twice with PBS, resuspended in 200 μL of PBS, and detected using the CytoFlex S flow cytometer. • n) Data analysis was conducted using FlowJo and GraphPad Prism 8 software.
Data were analyzed using FlowJo software. […]

Data set [2] in a line: Pharmacokinetic testing in mice. Format: in vivo, male CD-1 mice. Conditions: mouse; for Vd: read-out: Apparent volume of distribution Vd; for AUC(0-t): read-out: Area under the curve AUC0-last; for half-life: read-out: Half-life T1/2 (converted); for C0: read-out: Starting concentration C0; for bioavailability: read-out: Bioavailability F %; for Cmax: read-out: Peak concentration Cmax; for Tmax: read-out: Time to peak concentration Tmax. The procedure: The objective was to study the pharmacokinetic behavior of the compound of the present disclosure in mice and evaluate the pharmacokinetic characteristics, using male CD-1 mice aged 7 to 9 weeks as test animals. The drug concentrations in plasma at different time points after a single intravenous injection (IV) and oral administration (PO) of the compound were determined using LC/MS/MS.
The pharmacokinetic characteristics of the compound in rodents following intravenous injection and oral administration were tested using a standard protocol. Test animals were fasted for 10 to 14 hours before administration and allowed to feed 4 hours post-administration. The compound was prepared into a clear solution with the appropriate solvent for both IV (intravenous injection) and PO (oral gavage) administration. The solvent was 10% DMSO+10% solutol+80% (10% HP-β-CD aqueous solution). Whole blood samples were collected within 24 hours, centrifuged at 6000 g for 3 minutes, and the supernatant was separated to obtain plasma samples. Protein precipitation was performed by adding four times the volume of acetonitrile solution containing internal standard to the plasma samples. After centrifugation, the supernatant was added with an equal volume of water and then centrifuged before being subjected to LC-MS/MS analysis for quantifying plasma drug concentration. Pharmacokinetic parameters such as peak concentration, time to peak concentration, clearance, half-life, area under the drug-time curve, and bioavailability were calculated.

[3] abbreviates: male, CD-1, plasma, PO 10 mg/kg.

For orientation: IC50 means the concentration needed to halve the response being measured. The term bioavailability denotes dose-corrected exposure relative to a reference, in per cent.

SMILES strings stand for the structures. Where two headings read alike, the source gives them in different places.

On to `CNC(=O)c1cnc(NC(=O)C2CC2)cc1Nc1cccc(-c2ccc(S(=O)(=O)C(C)C)cn2)c1OC` [WX-020], for which the IC50 in data set [1] was determined as 40.3 nM.
Turning to `CNC(=O)c1nnc(NC(=O)C2CC2)cc1Nc1cccc(-c2ccc(P(=O)(C3CC3)C3CC3)cn2)c1OC` [WX-021], in data set [2] (male, CD-1, plasma, IV 3 mg/kg), the Vd stood at 0.9 L/kg, the AUC(0-t) is 11.9 µM·h, the half-life is 174 min and the C0 was found to be 9.89 µM. In data set [2] (setting [3]), the AUC(0-t) was found to be 20.7 µM·h, the bioavailability was 52%, the Cmax came to 11.3 µM and the Tmax is 18 min. The “Apparent clearance Cl” value in data set [2] (IV 3 mg/kg) came to 8.5 mL/min/kg.
Take `CNC(=O)c1cnc(NC(=O)C2CC2)cc1Nc1cccc(-c2ccc(S(=O)(=O)C(C)C)cn2)c1OC.Cl` [Hydrochloride of WX-020]: in data set [2] (IV 3 mg/kg), the “Apparent clearance Cl” value was 7.0 mL/min/kg, the “Apparent volume of distribution Vd” value stood at 1.1 L/kg, the “Area under the curve AUC0-last” value was 14.13 µM·h and the “Half-life T1/2” value worked out at 138 min. In data set [2] (IV 3 mg/kg), the C0 turned out to be 8.04 µM. In data set [2] (PO 10 mg/kg), the “Area under the curve AUC0-last” value was found to be 56.784 µM·h, the “Bioavailability F %” value was 121%, the “Time to peak concentration Tmax” value amounted to 30 min and the Cmax stood at 15.5 µM.
Regarding `CNC(=O)c1cnc(NC(=O)C2CC2)cc1Nc1cccc(-c2ncc(S(=O)(=O)C(C)C)cn2)c1OC` [WX-019], in data set [2] (male, CD-1, plasma, IV 3 mg/kg), the Vd turned out to be 0.4 L/kg, the AUC(0-t) is 21 µM·h, the half-life is 66 min and the C0 came out at 16.3 µM. Also, in data set [2] (setting [3]), the AUC(0-t) amounted to 61.2 µM·h, the bioavailability is 87%, the Cmax was 17.3 µM and the Tmax came to 48 min. In data set [2] (IV 3 mg/kg), the “Apparent clearance Cl” value was 4.7 mL/min/kg. The same compound yielded an IC50 in data set [1] of 29.7 nM.
On to `CNC(=O)c1nnc(NC(=O)C2CC2)cc1Nc1cccc(-c2ncc(S(=N)(=O)C(C)C)cn2)c1OC` (single isomer, unassigned) [WX-011A], for which, in data set [2] (IV 3 mg/kg), the “Apparent clearance Cl” value was found to be 14.1 mL/min/kg, the “Apparent volume of distribution Vd” value is on record as 0.8 L/kg, the “Area under the curve AUC0-last” value was 6.908 µM·h and the “Half-life T1/2” value is 252 min. In addition, in data set [2] (IV 3 mg/kg), the C0 turned out to be 9.92 µM. In data set [2] (PO 10 mg/kg), the “Area under the curve AUC0-last” value amounted to 26.715 µM·h, the “Bioavailability F %” value is 51%, the “Time to peak concentration Tmax” value was found to be 18 min and the Cmax turned out to be 16.8 µM. The same compound showed an IC50 in data set [1] of 23.1 nM.

(Values after US20240335462A1, “SULFUR/PHOSPHORUS-CONTAINING ARYL COMPOUND AND APPLICATION THEREOF” (MEDSHINE DISCOVERY INC., priority 2021, published 2024).)
